How the values were obtained:
[1] = system: ethanol-induced gastric lesions; experiment: In vivo cytoprotective effect: effect on ethanol-induced gastric lesions in the rat; parameters: species or system rat (female Spraque-Dawley); details: for total lengths of lesions in the stomachs: 20 μmol/kg oral
Protocol: III. In vivo cytoprotective effect: Effect on ethanol-induced gastric lesions in the rat
Two groups of female Spraque-Dawley rats (190-220 g) were used, one for the test compound and one for the control experiment. Food, but not water, was removed 24 h before the experiments.
The animals in the test group were treated orally with the test compound dissolved in 0.01M HCl immediately before the test and the animals in the control group were given the vehicle (0.01M HCl) in a dose of 1 ml/kg.
Five or thirty minutes later the rats were given orally 1 ml of absolute ethanol (a standard agent for inducing gastric mucosal lesions).
Thirty minutes later the rats were killed by carbon dioxide asphyxiation, their stomachs dissected out and the gastric mucosae were examined for the presence of necrotic lesions. The total lengths of the lesions in the stomachs were measured in the test group and in the control group, in both cases treated five and thirty minutes before with ethanol.

[2] = biological target: T1, Hog gastric H^+,K^+ -ATPase (Sus scrofa, UniProt P19156); experiment: In vitro inhibition of gastric H^+,K^+-ATPase; format: biochemical; details: pH 7,4; 30 minutes of incubation; 10 μg membrane protein (GI-fraction); read-out: concentration at half-maximal inhibition (IC50) (converted)
T1 construct: from tissue; host or cells: hog gastric membranes (GI-fraction)
T1 sequence (P19156 2-1034 limits assumed): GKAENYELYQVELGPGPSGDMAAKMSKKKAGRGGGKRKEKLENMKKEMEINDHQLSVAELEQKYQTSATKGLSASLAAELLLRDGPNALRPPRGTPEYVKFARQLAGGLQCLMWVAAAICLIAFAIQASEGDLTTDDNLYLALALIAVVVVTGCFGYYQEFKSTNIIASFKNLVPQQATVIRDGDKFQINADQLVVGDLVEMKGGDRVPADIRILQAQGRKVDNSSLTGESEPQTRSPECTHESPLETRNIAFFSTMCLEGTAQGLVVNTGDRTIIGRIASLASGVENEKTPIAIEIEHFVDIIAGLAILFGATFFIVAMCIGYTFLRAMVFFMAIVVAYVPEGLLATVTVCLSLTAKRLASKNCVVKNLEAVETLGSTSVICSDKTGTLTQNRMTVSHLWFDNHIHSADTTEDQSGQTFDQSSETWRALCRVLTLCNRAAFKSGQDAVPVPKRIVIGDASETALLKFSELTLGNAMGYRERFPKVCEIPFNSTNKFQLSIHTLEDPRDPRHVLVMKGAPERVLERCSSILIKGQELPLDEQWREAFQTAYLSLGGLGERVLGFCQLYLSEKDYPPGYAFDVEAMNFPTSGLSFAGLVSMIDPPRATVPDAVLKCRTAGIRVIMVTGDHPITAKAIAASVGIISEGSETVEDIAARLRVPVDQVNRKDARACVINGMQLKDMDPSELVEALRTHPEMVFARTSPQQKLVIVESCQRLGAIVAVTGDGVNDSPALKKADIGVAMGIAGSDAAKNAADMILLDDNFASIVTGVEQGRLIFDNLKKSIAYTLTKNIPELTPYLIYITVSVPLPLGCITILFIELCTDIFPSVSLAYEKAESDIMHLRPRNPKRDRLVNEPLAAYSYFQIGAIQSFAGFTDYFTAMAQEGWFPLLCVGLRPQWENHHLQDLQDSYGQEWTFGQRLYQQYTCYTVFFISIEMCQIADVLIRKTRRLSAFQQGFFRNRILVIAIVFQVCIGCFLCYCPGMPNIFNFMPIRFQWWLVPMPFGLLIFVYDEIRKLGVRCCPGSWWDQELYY
T1 sequence (P18434 whole entry partner): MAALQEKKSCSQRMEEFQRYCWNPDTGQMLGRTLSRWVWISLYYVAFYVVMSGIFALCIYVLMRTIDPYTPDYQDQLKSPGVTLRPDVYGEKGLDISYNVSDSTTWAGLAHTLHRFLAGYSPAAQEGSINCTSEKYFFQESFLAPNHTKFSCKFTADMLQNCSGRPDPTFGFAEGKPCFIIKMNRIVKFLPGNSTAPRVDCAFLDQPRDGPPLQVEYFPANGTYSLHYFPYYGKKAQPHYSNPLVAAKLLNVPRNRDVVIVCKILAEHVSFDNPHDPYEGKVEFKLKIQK
Protocol: I. In vitro inhibition of gastric H^+,K^+ -ATPase
Hog gastric H^+,K^+ -ATPase was purified according to Saccomani et al., Biochim. Biophys. Acta 465, 311-330, 1977. 10 μg of membrane protein (GI-fraction in the reference listed above) was incubated with 2 mmol/l of piperazine-N,N'-bis-(2-ethane sulfonic acid) buffer pH 7,4 and the test compound in concentrations 10^-7 -10^-4 M in a final volume of 1 ml. (The test compound was dissolved in methanol. Aliquots of these stock solutions were diluted to a final methanol concentration below 1%, which on its own had no effect on the enzyme activities.) After 30 minutes of incubation, the remaining H^+,K^+ -ATPase activity was determined, according to Wallmark et al., Biochim. Biophys. Acta, 728, 31-38, 1983. A dose-response curve was constructed and the concentration at half-maximal inhibition (IC50) could be determined.

[3] = system: gastric acid secretion; experiment: Inhibiting effect in vivo on gastric acid secretion in conscious dog; details: 4 μmol/kg; orally by stomach tube; histamine-induced; gastric fistula dogs
Protocol: II. Inhibiting effect in vivo on gastric acid secretion in conscious dog
Chronic gastric fistula dogs were used. These dogs have been surgically provided with a gastric cannula in the stomach and a duodenal fistula used for direct intraduodenal administration of test compounds. Following a 4 weeks' recovery period after surgery, tests were performed once a week on each dog. Food and water were withdrawn 18 hours before each test.
The test compound was suspended in 0.5% Methocel® (90 HG, 15.000, Dow Chem Corp.), the pH was immediately adjusted to about 4 by addition of hydrochloric acid and the suspension administered orally by using a stomach tube. After 1 hour gastric acid secretion was induced by continuous infusion of histamine at individual doses (400-600 nmol/kg, h), resulting in approx. 90% of maximal secretion of gastric acid. The gastric juice was collected by free flow from the gastric cannula in consecutive 30 minutes samples for 2 hours. The samples were titrated to pH 7.0 with 0.1M NaOH using a Radiometer automatic titrator and the acid output was calculated. The percent inhibition of acid secretion was calculated by comparing in each dog the acid output in the tests to the acid output in control tests when only the vehicle was given. The peak inhibitory effect for each compound was determined. […]

- IC50 [2]: 600 nM
Substance: 2,4-Dimethyl-3,9-dimethoxy-5H-pyrido[1',2':4,5][1,2,4]thiadiazino[2,3-a]benzimidazol-13-ium tetrafluoroborate (1A) and 2,4-Dimethyl-3,10-dimethoxy-5H-pyrido[1',2':4,5][1,2,4]thiadiazino[2,3-a]benzimidazol-13-ium tetrafluoroborate (1B) (isomeric mixture) [Examples 1A and 1B]
- total lengths of lesions in the stomachs ([1]; 5 min before ethanol, control 11.4 cm): 5.3 cm
- total lengths of lesions in the stomachs ([1]; 30 min before ethanol, control 10.4 cm): 4.4 cm
- ED50-value (cytoprotective effect) ([1]; oral, ethanol-induced gastric lesions, indicated by lesion reduction at 20 μmol/kg): below 20 μmol/kg
- percent inhibition of acid secretion (peak inhibitory effect) [3]: 40%

From patent US4636499A, “Sulphenamides” (priority 1984, dated 1987)
